# According to US11272709B2, “Amidine substituted benzoyl derivatives useful as herbicides” (Syngenta Participations AG, priority 2018, dated 2022):
# Legend:
# Type in all cases: in vivo
# [1] = tested on: Ipomoea hederacea (IPOHE); test: Post-emergence herbicidal glasshouse test, Ipomoea hederacea (IPOHE); details: 500 g/h, evaluated after 13 days
# Summary of the method: (§1)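 Plants sprayed 1 day (pre-emergence) or 8 days (post-emergence) after sowing, at 500 g/h unless indicated, in acetone/water (50:50) with 0.5% Tween 20. Glasshouse 24/16 °C, 14 h light, 65% humidity. Damage scored at 13 days on a five-point scale (5=80-100% to 1=0-19%).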
# Setaria faberi (SETFA) [2] = test: Post-emergence herbicidal glasshouse test, Setaria faberi (SETFA); details: 500 g/h, evaluated after 13 days
# Summary of the method: as §1
# [3] = tested on: Ipomoea hederacea (IPOHE); test: Pre-emergence herbicidal glasshouse test, Ipomoea hederacea (IPOHE); details: 500 g/h, evaluated after 13 days
# Summary of the method: as §1
# [4] = Comparative experiment, compound 1.049 versus Compound C1, (%) phytotoxicity observed (Table B2); details: rate 31 g/ha; for (%) phytotoxicity observed, POST Application ECHCG / (%) phytotoxicity observed, PRE Application ECHCG: Echinochloa crus-galli (ECHCG); for (%) phytotoxicity observed, POST Application SETFA / (%) phytotoxicity observed, PRE Application SETFA: Setaria faberi (SETFA)
# Procedure: Seeds of a variety of test species are sown in standard soil in pots (Lolium perenne (LOLPE), Amaranthus retoflexus (AMARE), Abutilon theophrasti (ABUTH), Setaria faberi (SETFA), Echinochloa crus-galli (ECHCG), Ipomoea hederacea (IPOHE)). After cultivation for one day (pre-emergence) or after 8 days cultivation (post-emergence) under controlled conditions in a glasshouse (at 24/16° C., day/night; 14 hours light; 65% humidity), the plants are sprayed with an aqueous spray solution derived from the formulation of the technical active ingredient in acetone/water (50:50) solution containing 0.5% Tween 20 (polyoxyethelyene sorbitan monolaurate, CAS RN 9005-64-5). Compounds are applied at […] unless otherwise indicated. The test plants are then grown in a glasshouse under controlled conditions in a glasshouse (at 24/16° C., day/night; 14 hours light; 65% humidity) and watered twice daily. After 13 days for pre and post-emergence, the test is evaluated for the percentage damage caused to the plant. The biological activities are shown in the following table on a five point scale (5=80-100%; 4=60-79%; 3=40-59%; 2=20-39%; 1=0-19%). [table]
# [5] = tested on: Amaranthus retoflexus (AMARE); test: Pre-emergence herbicidal glasshouse test, Amaranthus retoflexus (AMARE); details: 500 g/h, evaluated after 13 days
# Summary of the method: as §1
# [6] = tested on: Echinochloa crus-galli (ECHCG); test: Post-emergence herbicidal glasshouse test, Echinochloa crus-galli (ECHCG); details: 500 g/h, evaluated after 13 days
# Summary of the method: as §1
# [7] = tested on: Amaranthus retoflexus (AMARE); test: Post-emergence herbicidal glasshouse test, Amaranthus retoflexus (AMARE); details: 500 g/h, evaluated after 13 days
# Summary of the method: as §1
# [8] = tested on: Abutilon theophrasti (ABUTH); test: Pre-emergence herbicidal glasshouse test, Abutilon theophrasti (ABUTH); details: 500 g/h, evaluated after 13 days
# Summary of the method: as §1
# Setaria faberi (SETFA) [9] = test: Pre-emergence herbicidal glasshouse test, Setaria faberi (SETFA); details: 500 g/h, evaluated after 13 days
# Summary of the method: as §1
# [10] = tested on: Abutilon theophrasti (ABUTH); test: Post-emergence herbicidal glasshouse test, Abutilon theophrasti (ABUTH); details: 500 g/h, evaluated after 13 days
# Summary of the method: as §1
# [11] = tested on: Echinochloa crus-galli (ECHCG); test: Pre-emergence herbicidal glasshouse test, Echinochloa crus-galli (ECHCG); details: 500 g/h, evaluated after 13 days
# Summary of the method: as §1
SMILES,"POST Application IPOHE, percentage damage (five point scale) [1]","POST Application SETFA, percentage damage (five point scale) (Setaria faberi (SETFA) [2])","PRE Application IPOHE, percentage damage (five point scale) [3]","(%) phytotoxicity observed, POST Application ECHCG [4] [%]","(%) phytotoxicity observed, PRE Application ECHCG [4] [%]","(%) phytotoxicity observed, POST Application SETFA [4] [%]","(%) phytotoxicity observed, PRE Application SETFA [4] [%]","PRE Application AMARE, percentage damage (five point scale) [5]","POST Application ECHCG, percentage damage (five point scale) [6]","POST Application AMARE, percentage damage (five point scale) [7]","PRE Application ABUTH, percentage damage (five point scale) [8]","PRE Application SETFA, percentage damage (five point scale) (Setaria faberi (SETFA) [9])","POST Application ABUTH, percentage damage (five point scale) [10]","PRE Application ECHCG, percentage damage (five point scale) [11]"
CN(C)C=Nc1c(C(F)(F)F)ccc(C(=O)Nc2nnnn2C)c1Cl [Compound 1.049],5 (5=80-100%),5 (5=80-100%),5 (5=80-100%),90,90,90,90,5 (5=80-100%),5 (5=80-100%),5 (5=80-100%),5 (5=80-100%),5 (5=80-100%),5 (5=80-100%),5 (5=80-100%)
Cn1nnnc1NC(=O)c1ccc(C(F)(F)F)c(N)c1Cl [Cl],,,,0,0,20,0,,,,,,,
CON=C(C)N(C)Cc1c(S(C)(=O)=O)ccc(C(=O)Nc2nnc(C)o2)c1Cl [Compound 5.016],4 (4=60-79%),5 (5=80-100%),5 (5=80-100%),,,,,5 (5=80-100%),5 (5=80-100%),4 (4=60-79%),5 (5=80-100%),5 (5=80-100%),3 (3=40-59%),5 (5=80-100%)
CN(C=Nc1c(S(C)(=O)=O)ccc(C(=O)Nc2nnnn2C)c1Cl)c1ccccc1 [Compound 1.145],4 (4=60-79%),5 (5=80-100%),4 (4=60-79%),,,,,5 (5=80-100%),5 (5=80-100%),4 (4=60-79%),5 (5=80-100%),5 (5=80-100%),3 (3=40-59%),5 (5=80-100%)
Cc1c(C(=O)Nc2nnnn2C)ccc(C(F)(F)F)c1N=CN(C)C [Compound 1.017],5 (5=80-100%),5 (5=80-100%),5 (5=80-100%),,,,,5 (5=80-100%),5 (5=80-100%),5 (5=80-100%),5 (5=80-100%),5 (5=80-100%),5 (5=80-100%),5 (5=80-100%)
Cc1nnc(NC(=O)c2ccc(C(F)(F)F)c(N=CN(C)C(C)C)c2Cl)o1 [Compound 2.140],4 (4=60-79%),5 (5=80-100%),4 (4=60-79%),,,,,5 (5=80-100%),5 (5=80-100%),5 (5=80-100%),5 (5=80-100%),5 (5=80-100%),5 (5=80-100%),5 (5=80-100%)
"CON=C(C)N(C)Cc1c(S(C)(=O)=O)ccc(C(=O)Nc2nnnn2C)c1Cl [Compound 4.016, 2-chloro-3-[[[N-methoxy-C-methyl-carbonimidoyl]-methyl-amino]methyl]-4-methylsulfonyl-N-(1-methyltetrazol-5-yl)benzamide]",4 (4=60-79%),5 (5=80-100%),5 (5=80-100%),,,,,5 (5=80-100%),5 (5=80-100%),4 (4=60-79%),5 (5=80-100%),5 (5=80-100%),3 (3=40-59%),5 (5=80-100%)
CCN(C=Nc1c(C(F)(F)F)ccc(C(=O)Nc2nnc(C)o2)c1Cl)CC [Compound 2.055],4 (4=60-79%),5 (5=80-100%),5 (5=80-100%),,,,,5 (5=80-100%),5 (5=80-100%),5 (5=80-100%),5 (5=80-100%),5 (5=80-100%),4 (4=60-79%),5 (5=80-100%)
